Patent US8507508B2, “Solid forms of pemetrexed” (Dr. Reddy's Laboratories Limited, priority 2007, dated 2013)
Each block holds one compound with its values, some of them ahead of it.

Experiment: Physical stability on storage, checked by retention of the original XRPD pattern
Type: physicochemical
Excerpt: All XRPD data reported herein were obtained using a Bruker or PANalytical AXS D8 Advance Powder X-ray Diffractometer at Cu Kα radiation, having the wavelength 1.5418 Å. Since some margin of error is possible in the assignment of 2 theta angles and d-spacings, the preferred method of comparing X-ray powder diffraction patterns in order to identify a particular crystalline form is to overlay the X-ray powder diffraction pattern of the unknown form over the X-ray powder diffraction pattern of a known form. For all analytical data discussed in this application, it should be kept in mind that specific values depend on many factors, e.g., specific instrument, sample preparation and individual operator.
The obtained sample kept in a sealed polythene bag at a temperature of 20° C. to 25° C. for a period of 58 days to check the physical stability.
The obtained sample kept in a sealed polythene bag at a temperature of 20 to 25° C. for a period of 7 days to check the physical stability.
The obtained sample kept in a sealed polythene bag at a temperature of 20 to 25° C. for a period of 3 days to check the physical stability.
The sample was kept in a petri dish and stored at room temperature for a period of 24 hours to check the physical stability.

- physical stability (XRPD and physical observation) (sealed polythene bag, 20° C. to 25° C., 58 days): retain its amorphous nature
Compound: Nc1nc2[nH]cc(CCc3ccc(C(=O)N[C@@H](CCC(=O)[O-])C(=O)[O-])cc3)c2c(=O)[nH]1.[Na+].[Na+] [Example 1, Amorphous Pemetrexed Disodium]

- physical stability (XRPD) (petri dish, room temperature, 24 hours): retain its polymorphic form
- physical stability (XRPD) (sealed polythene bag, 20 to 25° C., 3 days): retain its polymorphic form
Compound: Nc1nc2[nH]cc(CCc3ccc(C(=O)N[C@@H](CCC(=O)[O-])C(=O)[O-])cc3)c2c(=O)[nH]1.[Na+].[Na+] [Example 4, Amorphous Pemetrexed Disodium]

- physical stability (XRPD) (sealed polythene bag, 20 to 25° C., 7 days): retain its amorphous form
Compound: Nc1nc2[nH]cc(CCc3ccc(C(=O)N[C@@H](CCC(=O)[O-])C(=O)[O-])cc3)c2c(=O)[nH]1.[Na+].[Na+] [Example 3, Amorphous Pemetrexed Disodium]
